{
  "source": "patent US9974760B2",
  "about": "“Compositions and methods for treating cancer” (Chemo-Enhanced LLC, priority 2011, dated 2018)",
  "key": {"Panc-1 cells": {"system": "Panc-1 cells", "experiment": "Cell death in Panc-1 pancreatic cancer cells", "type": "cell-based", "conditions": "Panc-1; gemcitabine 1.5 μg/ml", "experimental": "(§1) FIGS. 3A-3H show synergistic anti-tumor effects of C6-ceramide and gemcitabine in vivo and in vitro. SCID/Beige/Taconic nude male mice (22-25 g; 6-8 weeks old) were ear tagged and randomized into 4 different groups (Control, Ceramide, gemcitabine, Ceramide+gemcitabine) combining 5 mice each prior to inoculation subcutaneous (s.c.) with 2×10^6 L3.6 cells in a 0.1 ml volume into the internal surface of the right thigh. Treatment was started 4 days after L3.6 cell injection with thrice weekly (3×/wk) intraperitoneal (i.p.) injections of gemcitabine (two doses: 5.0 and 10.0 mg/ml) with or without C6-ceramide (10 mg/ml) for 2 weeks. Mouse survival (FIGS. 3A, 3B, and 3E) and tumor volume (in cm^3; FIGS. 3C and 3D) were recorded (FIG. 3E). […] Mitomycin C was always present in the media to prevent cell proliferation from occurring. The data represent the mean±SD of at least triplicate experiments. *P<0.05 versus group without C6-ceramide presents. The experiments were repeated at least three times and similar results were observed.\n(§2) Cell viability was measured by the 3-[4m5-dimethylthylthiazol-2-y]-2.5 diphenyltetrazolium bromide (MTT) method, as described in Cao et al. (2009) Sci. Signal, 2:RA17. Briefly, the cells were collected and seeded in 96-well plate at a density of 2×10^5 cells/cm^2. Different seeding densities were optimized at the beginning of the experiments. […] The medium was subsequently aspirated from each well and 150 ul of DMSO (Sigma, St. Louis, Mo.) was added to dissolve formazan crystals and the absorbance of each well was obtained using a Dynatech MR5000 plate reader at a test wavelength of 490 nm with a reference wavelength of 630 nm.\n(§3) The possible combination effect of C6-ceramide on gemcitabine-induced cytotoxicity (in vitro) and regression (in vivo) of the L3.6 pancreatic cancer cell was also tested according to the methods described in Examples 2 and 3. […] A synergistic anti-tumor effect of gemcitabine and C6-ceramide in multiple pancreatic cancer cells in vitro was also determined."}, "MIA-PaCa2 cells": {"system": "MIA-PaCa2 cells", "experiment": "Cell death in MIA-PaCa2 pancreatic cancer cells", "type": "cell-based", "conditions": "MIA cells; gemcitabine 1.5 μg/ml", "experimental": "as §1, §2, §3"}, "L3.6 pancreatic cells": {"system": "L3.6 pancreatic cells", "type": "in vivo", "experimental": "Treatment was started 4 days after L3.6 cell injection with thrice weekly (3×/wk) intraperitoneal (i.p.) injections of paclitaxel 3.0 mg/ml with or without C6-ceramide (10 mg/ml) for 2 weeks. Mouse survival (FIGS. 2A and 2C), tumor volume (in cm^3; FIG. 2B), mouse body weight (in grams) were recorded (FIG. 2E). The average rate of tumor development was calculated by total tumor volume dividing by total number of days monitored (FIG. 2C).\nSCID/Beige/Taconic nude male mice (22-25 g; 6-8 weeks old) were ear tagged and randomized into 4 different groups (Control, Ceramide, gemcitabine, Ceramide+gemcitabine) combining 5 mice each prior to inoculation subcutaneous (s.c.) with 2×10^6 L3.6 cells in a 0.1 ml volume into the internal surface of the right thigh. Treatment was started 4 days after L3.6 cell injection with thrice weekly (3×/wk) intraperitoneal (i.p.) injections of gemcitabine (two doses: 5.0 and 10.0 mg/ml) with or without C6-ceramide (10 mg/ml) for 2 weeks. Mouse survival (FIGS. 3A, 3B, and 3E) and tumor volume (in cm^3; FIGS. 3C and 3D) were recorded (FIG. 3E). Pancreatic cancer cell lines, including L3.6 cells (FIG. 3F), Panc-1 cells (FIG. 3G) and MIA-PaCa2 cells (MIA, FIG. 3H) were cultured in basic DMEM medium and were treated with gemcitabine (Gem, 1 μg/ml). Mitomycin C was always present in the media to prevent cell proliferation from occurring.\nSCID/Beige/Taconic male mice were inoculated with 2×10^6 L3.6 pancreatic cells and treated […] 4 days post tumor implant with thrice weekly (3×/wk) intraperitoneal (I.P.) injections of paclitaxel (taxol) 3.0 mg/ml or gemcitabine (Gem) 10 mg/ml after treatment and were autopsied when near death (as per IRB committee). Mouse survival, tumor volume (in cm^3), and body weight (in grams) were recorded. Average rate of tumor development was calculated by dividing total tumor volume by total number of days monitored.\nThe possible combination effect of C6-ceramide on gemcitabine-induced cytotoxicity (in vitro) and regression (in vivo) of the L3.6 pancreatic cancer cell was also tested according to the methods described in Examples 2 and 3."}, "AKT/mTORC1": {"system": "AKT/mTORC1", "experiment": "Western Blot of AKT/mTORC1 activation in L3.6 cells", "type": "cell-based", "experimental": "(§4) Pancreatic cancer cell lines L3.6 cells were left untreated or treated with gemcitabine (Gem, 1 μg/ml) or taxol (1.5 μg/ml) in the presence or absence of C6-ceramide (10 μg/ml) for 2, 4 and 6 hours, AKT/mTORC1 and ERK activation were detected by Western Blot using indicated antibodies (FIGS. 5A and 5C). p-AKT (S473) and p-ERK at 4 hour time intervals for each treatment quantified (FIGS. 5B and 5D). L3.6 cells were pretreated with various inhibitors including PI3K/AKT inhibitor LY 294002 (LY, 1 μM), mTORC1 inhibitor rapamycin (100 nM), MEK/ERK inhibitor U0126 (1 μg/ml) or gemcitabine (1 μg/ml) for 48 hours, cell death was detected 48 hours later (FIG. 5E).\n(§5) As described in Cao et al. (2009) Sci. Signal, 2:RA17, aliquots of 30-40 μg of protein from each sample (treated as indicated in the legends) were separated by 10% SDS-polyacrylamide gel electrophoresis (SDS-PAGE) and transferred onto a polyvinylidene difluoride (PVDF) membrane (Millipore, Bedford, Mass.). After blocking with 10% instant nonfat dry milk for 1 hour, membranes were incubated with specific antibodies overnight at 4° C. followed by incubation with secondary antibodies (HRP-conjugated anti-rabbit or anti-mouse IgG at the appropriate dilutions) for 60 minutes to 1 hour at room temperature. Antibody binding was detected with the enhanced chemiluminescence (ECL) detection system (Amersham Biosciences, Piscataway, N.J.)."}, "ERK": {"system": "ERK", "experiment": "Western Blot of ERK activation in L3.6 cells", "type": "cell-based", "experimental": "as §4, §5"}, "[1]": {"system": "L3.6 pancreatic cancer cells", "experiment": "Cell viability / cell death (MTT) in L3.6 pancreatic cancer cells", "type": "cell-based, human", "conditions": "gemcitabine 1.5 μg/ml"}, "cancer cells": {"system": "cancer cells", "experiment": "Taxol induced cancer cell death with pathway inhibitors/activators (FIGS. 4A-4D)", "type": "cell-based", "conditions": "added to Taxol", "excerpt": "The molecular mechanism involved in C6-ceramide induced chemosensitization effects was examined by focusing on taxol.\nTo further confirm the requirement of AMPK activation in this synergistic effect, siRNA directed against AMPK can be used."}, "[2]": {"system": "L3.6 pancreatic cancer cells", "experiment": "Cell viability / cell death (MTT) in L3.6 pancreatic cancer cells", "type": "cell-based, human", "conditions": "LY 1 μM, rapamycin 100 nM, U0126 1 μg/ml; 48 hours", "experimental": "L3.6 pancreatic cancer cells, cultured either in the basic DMEM medium or with 10% FBS, were treated with the indicated doses of taxol in the presence or absence of C6-ceramide (10 μg/ml) for 48 hours and cell viability was detected by MTT assay (FIGS. 1A-1B). L3.6 cells, cultured either in basic DMEM medium or with 10% FBS, were treated with the indicated dose of C6-ceramide in the presence or absence of taxol (1.5 μg/ml) for 48 hours and cell viability was detected by MTT assay (FIGS. 1C-1D). Mitomycin C (10 μg/ml) was always present in the media to prevent cell proliferation from occurring. The data represents the mean±SD of at least triplicate experiments. *P<0.05 versus group without C6-ceramide presents (FIGS. 1A-1B). **P<0.05 versus group without taxol presents (FIGS. 1C-1D).\nFIGS. 3A-3H show synergistic anti-tumor effects of C6-ceramide and gemcitabine in vivo and in vitro. SCID/Beige/Taconic nude male mice (22-25 g; 6-8 weeks old) were ear tagged and randomized into 4 different groups (Control, Ceramide, gemcitabine, Ceramide+gemcitabine) combining 5 mice each prior to inoculation subcutaneous (s.c.) with 2×10^6 L3.6 cells in a 0.1 ml volume into the internal surface of the right thigh. Treatment was started 4 days after L3.6 cell injection with thrice weekly (3×/wk) intraperitoneal (i.p.) injections of gemcitabine (two doses: 5.0 and 10.0 mg/ml) with or without C6-ceramide (10 mg/ml) for 2 weeks. Mouse survival (FIGS. 3A, 3B, and 3E) and tumor volume (in cm^3; FIGS. 3C and 3D) were recorded (FIG. 3E). Pancreatic cancer cell lines, including L3.6 cells (FIG. 3F), Panc-1 cells (FIG. 3G) and MIA-PaCa2 cells (MIA, FIG. 3H) were cultured in basic DMEM medium and were treated with gemcitabine (Gem, 1 μg/ml). Mitomycin C was always present in the media to prevent cell proliferation from occurring. The data represent the mean±SD of at least triplicate experiments. *P<0.05 versus group without C6-ceramide presents. The experiments were repeated at least three times and similar results were observed.\nas §4, with “5E). The effects of the various inhibitors described above on AKT/mTORC1 and ERK activation were also detected by Western Blots using commercial available antibodies (FIG. 5F). *P<0.05 versus group without C6-ceramide presents. The experiments were repeated at least three times and similar results were observed.” for “5E).”\nCell viability was measured by the 3-[4m5-dimethylthylthiazol-2-y]-2.5 diphenyltetrazolium bromide (MTT) method, as described in Cao et al. (2009) Sci. Signal, 2:RA17. Briefly, the cells were collected and seeded in 96-well plate at a density of 2×10^5 cells/cm^2. Different seeding densities were optimized at the beginning of the experiments. After overnight incubation cells were exposed to fresh medium containing indicated reagents at 37° C. After incubation for different time periods, 20 ul of MTT tetrazolium (Sigma, St. Louis, Mo.) salt dissolved in Hank's balanced solution at a concentration of 5 mg/ml was added to each well and incubated in a CO2 incubator for an additional 4 hours. The medium was subsequently aspirated from each well and 150 ul of DMSO (Sigma, St. Louis, Mo.) was added to dissolve formazan crystals and the absorbance of each well was obtained using a Dynatech MR5000 plate reader at a test wavelength of 490 nm with a reference wavelength of 630 nm. […]"}},
  "note": "“Also recorded” adds a separate entry of the source.",
  "data": [
    {"smiles": "Nc1ccn([C@@H]2O[C@H](CO)[C@@H](O)C2(F)F)c(=O)n1", "note": "[gemcitabine]", "values": [
      {"measurement": "cancer cell death", "setting": "Panc-1 cells", "result": "moderate effect"},
      {"measurement": "cancer cell death", "setting": "MIA-PaCa2 cells", "result": "moderate effect"},
      {"measurement": "anti-tumor effect", "setting": "L3.6 pancreatic cells; gemcitabine 10 mg/kg", "result": "moderate anti-tumor effect"},
      {"measurement": "survival and tumor growth", "setting": "L3.6 pancreatic cells; low dose gemcitabine 5 mg/kg", "result": "limited effect"},
      {"measurement": "AKT/mTORC1 activation / signaling", "setting": "AKT/mTORC1; L3.6 cells, Western Blot", "result": "no effect"},
      {"measurement": "PI3K/AKT/mTOR activation", "setting": "AKT/mTORC1; Taxol alone", "result": "no effect"},
      {"measurement": "effect on C6-ceramide induced AKT de-phosphorylation or inhibition", "setting": "AKT/mTORC1; added to C6-ceramide", "result": "dramatically enhanced"},
      {"measurement": "ERK activation / signaling", "setting": "ERK; L3.6 cells, Western Blot", "result": "no effect"},
      {"measurement": "effect on C6-ceramide inhibition of ERK activation", "setting": "ERK; added to C6-ceramide", "result": "enhanced"},
      {"measurement": "cancer cell death", "setting": "[1]", "result": "moderate effect"}
    ]},
    {"smiles": "CCCCCCCCCCCCCCCCCCOC[C@H](COP(=O)(O)O[C@H]1[C@H](O)[C@@H](O)[C@H](O)C[C@H]1OC)OC", "note": "[AKT inhibitor II]", "values": [
      {"measurement": "Taxol induced cell death in vivo", "setting": "L3.6 pancreatic cells; inhibitor plus taxol, pancreatic cancer model SCID mice, expected", "result": "enhance"},
      {"measurement": "effect on Taxol induced cancer cell death", "setting": "cancer cells", "result": "enhance"}
    ]},
    {"smiles": "c1cc(-c2cnn3cc(-c4ccc(OCCN5CCCCC5)cc4)cnc23)ccn1", "note": "[Compound C]", "values": [
      {"measurement": "effect on Taxol induced cancer cell death", "setting": "cancer cells", "result": "inhibits"}
    ]},
    {"smiles": "NC(=O)c1ncn([C@@H]2O[C@H](CO)[C@@H](O)[C@H]2O)c1N", "note": "[AICAR]", "values": [
      {"measurement": "effect on Taxol induced cancer cell death", "setting": "cancer cells", "result": "enhance"}
    ]},
    {"smiles": "N#CC(=C(N)Sc1ccccc1N)C(C#N)=C(N)Sc1ccccc1N", "note": "[U0126, 1,4-diamino-2,3-dicyano-1,4-bis [2-aminophenylthio]butadiene]", "values": [
      {"measurement": "effect on gemcitabine induced L3.6 cell death", "setting": "[2]", "result": "largely enhanced; also recorded: sensitized"},
      {"measurement": "effect on taxol induced L3.6 cell death", "setting": "[2]", "result": "largely enhanced; also recorded: sensitized"}
    ]}
  ]
}
